According to ChEMBL document CHEMBL5634192, “Transforming Therapeutic Approaches with PROTAC Technology: New Targets and Potentials” (ACS Med Chem Lett, 2024):

Key:
[1] = target: T1, von Hippel-Lindau disease tumor suppressor/Interleukin-1 receptor-associated kinase 4 (Homo sapiens, UniProt Q9NWZ3+P40337); test: PROTAC activity at VHL E3 ligase/IRAK4 in human PBMC cells assessed as induction of degradation of IRAK4 incubated overnight by ELISA method; type: cell-based
[2] = target: T1, von Hippel-Lindau disease tumor suppressor/Interleukin-1 receptor-associated kinase 4; test: PROTAC activity at VHL E3 ligase/IRAK4 in human PBMC cells assessed as induction of degradation of IRAK4 incubated overnight by ELISA method relative to control; type: cell-based
Target sequence in this assay (P40337 whole entry, looked up): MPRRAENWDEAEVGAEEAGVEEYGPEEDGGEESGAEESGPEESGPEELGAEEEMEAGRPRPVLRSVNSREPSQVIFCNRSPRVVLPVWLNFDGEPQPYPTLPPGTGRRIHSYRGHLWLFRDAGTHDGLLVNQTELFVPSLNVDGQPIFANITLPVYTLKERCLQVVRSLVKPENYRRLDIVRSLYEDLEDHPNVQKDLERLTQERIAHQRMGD
Target sequence in this assay (Q9NWZ3 whole entry, looked up): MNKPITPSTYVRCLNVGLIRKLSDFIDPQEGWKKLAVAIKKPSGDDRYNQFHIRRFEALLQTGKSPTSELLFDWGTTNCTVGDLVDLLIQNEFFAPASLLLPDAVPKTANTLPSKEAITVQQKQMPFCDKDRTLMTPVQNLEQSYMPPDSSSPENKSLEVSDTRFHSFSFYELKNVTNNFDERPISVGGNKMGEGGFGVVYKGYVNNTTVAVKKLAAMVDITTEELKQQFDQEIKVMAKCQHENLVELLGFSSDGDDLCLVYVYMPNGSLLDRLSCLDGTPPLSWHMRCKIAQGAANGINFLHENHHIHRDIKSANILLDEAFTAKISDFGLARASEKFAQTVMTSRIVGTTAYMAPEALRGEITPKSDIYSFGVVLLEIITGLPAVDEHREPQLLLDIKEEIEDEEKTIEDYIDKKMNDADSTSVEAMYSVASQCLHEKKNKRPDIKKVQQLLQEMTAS

DC50 [1] | EC90 [1] | Emax [2] | SMILES
1 nM | < 10 nM | > 90% | CC(C)Oc1cc2c(cc1NC(=O)c1cnn3cccnc13)CN(C1CCN(CC3CCN(c4ccc(C5CCC(=O)NC5=O)cc4)CC3)CC1)C2=O (centres undefined)
< 1 nM | < 10 nM | > 90% | O=C1CCC(c2ccc(N3CC(F)(CN4CCC(n5cc6cc(NC(=O)c7cnn8cccnc78)c(N7CCC(N8CCC8)CC7)cc6n5)CC4)C3)cc2F)C(=O)N1 (centres undefined)
< 1 nM | < 10 nM | > 90% | CC(C)Oc1cc2c(cc1NC(=O)c1cnn3cccnc13)CN(C1CCN(CC3CCN(c4ccc(C5CCC(=O)NC5=O)c(F)c4)CC3)CC1)C2=O (centres undefined)
< 1 nM | < 10 nM | > 90% | CC(C)Oc1cc2c(cc1NC(=O)c1cnn3cccnc13)CN(C1CCN(CC3CCN(c4ccc(C5CCC(=O)NC5=O)cn4)CC3)CC1)C2=O (centres undefined)
< 1 nM | < 10 nM | > 90% | O=C1CCC(c2ccc(N3CCC4(CCC(CN5CCC(n6cc7cc(NC(=O)c8cnn9cccnc89)c(OCC8CC8)cc7n6)CC5)CC4)CC3)cc2F)C(=O)N1 (centres undefined)
< 1 nM | < 10 nM | > 90% | CC(C)Oc1nc2c(cc1NC(=O)c1cnn3cccnc13)CN(C1CCN(CC3CCN(c4ccc(C5CCC(=O)NC5=O)c(F)c4)CC3)CC1)C2=O (centres undefined)
< 1 nM | < 10 nM | > 90% | O=C1CCC(c2ccc(N3CC(F)(CN4CCC(n5cc6cc(NC(=O)c7cnn8cccnc78)c(OCC7CC7)cc6n5)CC4)C3)cc2F)C(=O)N1 (centres undefined)
1 nM | < 10 nM | > 90% | O=C1CCC(c2ccc(N3CCC4(CC3)CC(CN3CCC(n5cc6cc(NC(=O)c7cnn8cccnc78)c(OCC7CC7)cc6n5)CC3)C4)cc2F)C(=O)N1 (centres undefined)
